Reference: publication PMC5587642, “A Novel Benzocoumarin-Stilbene Hybrid as a DNA ligase I inhibitor with in vitro and in vivo anti-tumor activity in breast cancer models” (Scientific Reports, 2017)
Entries after “also recorded” stand apart in the source; their conditions may differ.

How the values were obtained:
[1] = system: 4T1 (Mouse Breast Cancer); test: MTT cell viability assay; type: cell-based
Procedure: (§1) Cell viability assay was performed as described previously. Briefly, cells were seeded in 96 well plates and treated with different concentrations of compound 19 for 48 h. After drug treatment, MTT reagent was added in each well of the plate and cell viability was quantified by measuring the absorbance at 590 nm.

[2] = system: A172 (Brain); test: MTT cell viability assay; type: cell-based
Procedure: as §1

[3] = system: A549 (Lung); test: MTT cell viability assay; type: cell-based
Procedure: as §1

[4] = system: DLD1 (Colon); test: MTT cell viability assay; type: cell-based
Procedure: as §1

[5] = system: HEK-293 (Non-cancerous cell); test: MTT cell viability assay; type: cell-based
Procedure: as §1

[6] = system: PANC-1 (Pancreas); test: MTT cell viability assay; type: cell-based
Procedure: as §1

[7] = system: PLC/PRF/5 (Liver); test: MTT cell viability assay; type: cell-based
Procedure: as §1

[8] = system: SK-OV-3 (Ovary); test: MTT cell viability assay; type: cell-based
Procedure: as §1

[9] = system: MDA-MB-231 cells; test: Cell cycle distribution analysis (PI, FACS); type: cell-based, human; settings: 12 µM
Procedure: For the study of cell cycle distribution, cells were synchronized by serum starvation for 48 h and then grown in serum containing media in the presence or absence of 12 µM compound 19, after 0, 24 and 48 h, cells were harvested, washed twice with cold PBS and fixed with 70% ethanol. The fixed cells were washed with chilled PBS and then stained with 50 μg/mL of Propidium iodide. Cell cycle distribution was analyzed by using FACS-Calibur (BD Biosciences, San Diago, CA).

[10] = system: 4T1 mouse breast cancer induced syngeneic breast tumor; test: Syngeneic 4T1 orthotopic breast cancer model; type: in vivo, BALB/c mice; settings: 50 and 100 mg/kg, oral gavage daily for 32 days
Procedure: Animal studies were conducted under the protocol approved by the CSIR-CDRI Institutional Animal Ethics Committee (IAEC approval no. IAEC/2015/03). The in-vivo efficacy studies were performed using BALB/c mice with 4T1 mouse breast cancer induced syngeneic breast tumor model. Mouse tumor model was generated as described by Pulaski et al.[38]. Three different groups of 6 mice each were created for the experiment. Mouse breast cancer cells (4T1) were grown in tissue culture flask upto 70% confluence. Cells were then trypsinized, washed with serum containing medium to quench trypsin activity and then washed and resuspended in PBS. Then cells were injected orthotopically (1 × 10^6 cells in 100 μl PBS) into the mammary fat pad on the right flank of each female BALB/c mouse. Within 2 weeks, palpable tumors were formed and tumor bearing mice were divided randomly into one control and two treatment groups of six mice each. The treatment schedule began on day 16 of the injection and continued for another thirty two days. Compounds were administered by oral gavage once daily at 50 and 100 mg/kg. Tumor volumes were measured every fourth day. The group of vehicle treated animals served as control. The tumor volume, body weight and any behavioral changes in mice were monitored and recorded for the entire duration of the experiment (32 days). Tumor volumes were calculated using the formula (a × b^2)/2, where a, b are two longest perpendicular diameters.

[11] = molecular target: T4 DNA ligase (Enterobacteria phage T4, UniProt P00970); test: In-vitro DNA ligation assay; type: biochemical; settings: 5, 10 and 20 µM
Chain of T4 DNA ligase (P00970 whole entry): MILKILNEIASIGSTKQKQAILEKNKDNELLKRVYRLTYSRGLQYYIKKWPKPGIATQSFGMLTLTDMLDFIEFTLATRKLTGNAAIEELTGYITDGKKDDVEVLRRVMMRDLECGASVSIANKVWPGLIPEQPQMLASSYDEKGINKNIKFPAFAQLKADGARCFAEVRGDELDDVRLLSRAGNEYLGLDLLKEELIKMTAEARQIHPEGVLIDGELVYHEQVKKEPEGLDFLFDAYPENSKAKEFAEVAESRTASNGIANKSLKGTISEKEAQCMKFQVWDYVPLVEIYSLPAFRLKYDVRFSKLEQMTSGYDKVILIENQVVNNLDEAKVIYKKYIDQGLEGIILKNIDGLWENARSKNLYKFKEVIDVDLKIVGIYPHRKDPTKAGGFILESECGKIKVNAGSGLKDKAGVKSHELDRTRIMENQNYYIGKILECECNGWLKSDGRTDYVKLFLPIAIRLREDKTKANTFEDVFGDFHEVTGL
Procedure: (§2) DNA ligation assay was performed as described previously. […] After the incubation, gel images were captured and analyzed by Image Quant LAS4010 software.

[12] = molecular target: T1, hLigI (Homo sapiens, UniProt P18858); test: In-vitro DNA ligation assay; type: biochemical
T1 construct: made in house
T1 sequence (P18858 whole entry): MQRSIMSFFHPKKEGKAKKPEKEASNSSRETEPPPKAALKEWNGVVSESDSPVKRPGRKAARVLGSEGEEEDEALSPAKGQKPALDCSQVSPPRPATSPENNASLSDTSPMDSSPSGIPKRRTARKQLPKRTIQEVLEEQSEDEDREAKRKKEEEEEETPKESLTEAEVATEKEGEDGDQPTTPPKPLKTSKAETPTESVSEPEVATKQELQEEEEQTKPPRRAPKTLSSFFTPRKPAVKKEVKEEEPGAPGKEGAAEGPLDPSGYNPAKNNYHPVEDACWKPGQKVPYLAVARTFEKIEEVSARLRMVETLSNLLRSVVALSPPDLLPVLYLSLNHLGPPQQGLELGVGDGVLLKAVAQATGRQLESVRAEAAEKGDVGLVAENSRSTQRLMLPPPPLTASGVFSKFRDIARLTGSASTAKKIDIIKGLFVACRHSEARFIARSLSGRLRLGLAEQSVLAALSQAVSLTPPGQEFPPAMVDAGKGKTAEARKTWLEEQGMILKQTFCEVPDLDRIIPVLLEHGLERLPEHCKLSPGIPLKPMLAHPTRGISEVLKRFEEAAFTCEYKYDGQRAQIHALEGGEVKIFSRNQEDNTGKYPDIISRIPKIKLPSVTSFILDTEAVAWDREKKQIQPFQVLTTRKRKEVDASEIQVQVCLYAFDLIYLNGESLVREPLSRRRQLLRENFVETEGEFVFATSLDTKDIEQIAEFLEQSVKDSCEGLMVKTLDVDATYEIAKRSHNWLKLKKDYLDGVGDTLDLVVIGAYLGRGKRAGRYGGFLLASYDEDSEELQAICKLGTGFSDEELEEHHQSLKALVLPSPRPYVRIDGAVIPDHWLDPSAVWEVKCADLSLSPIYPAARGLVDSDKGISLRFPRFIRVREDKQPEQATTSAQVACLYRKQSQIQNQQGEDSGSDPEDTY
Procedure: as §2

[13] = molecular target: T2, hLigIIIβ (Homo sapiens, UniProt P49916); test: In-vitro DNA ligation assay; type: biochemical; settings: 5, 10 and 20 µM
T2 construct: made in house; host or cells: E. coli Rosetta2 (DE3) pLacI
T2 sequence (P49916 43-949 isoform P49916-2 limits assumed): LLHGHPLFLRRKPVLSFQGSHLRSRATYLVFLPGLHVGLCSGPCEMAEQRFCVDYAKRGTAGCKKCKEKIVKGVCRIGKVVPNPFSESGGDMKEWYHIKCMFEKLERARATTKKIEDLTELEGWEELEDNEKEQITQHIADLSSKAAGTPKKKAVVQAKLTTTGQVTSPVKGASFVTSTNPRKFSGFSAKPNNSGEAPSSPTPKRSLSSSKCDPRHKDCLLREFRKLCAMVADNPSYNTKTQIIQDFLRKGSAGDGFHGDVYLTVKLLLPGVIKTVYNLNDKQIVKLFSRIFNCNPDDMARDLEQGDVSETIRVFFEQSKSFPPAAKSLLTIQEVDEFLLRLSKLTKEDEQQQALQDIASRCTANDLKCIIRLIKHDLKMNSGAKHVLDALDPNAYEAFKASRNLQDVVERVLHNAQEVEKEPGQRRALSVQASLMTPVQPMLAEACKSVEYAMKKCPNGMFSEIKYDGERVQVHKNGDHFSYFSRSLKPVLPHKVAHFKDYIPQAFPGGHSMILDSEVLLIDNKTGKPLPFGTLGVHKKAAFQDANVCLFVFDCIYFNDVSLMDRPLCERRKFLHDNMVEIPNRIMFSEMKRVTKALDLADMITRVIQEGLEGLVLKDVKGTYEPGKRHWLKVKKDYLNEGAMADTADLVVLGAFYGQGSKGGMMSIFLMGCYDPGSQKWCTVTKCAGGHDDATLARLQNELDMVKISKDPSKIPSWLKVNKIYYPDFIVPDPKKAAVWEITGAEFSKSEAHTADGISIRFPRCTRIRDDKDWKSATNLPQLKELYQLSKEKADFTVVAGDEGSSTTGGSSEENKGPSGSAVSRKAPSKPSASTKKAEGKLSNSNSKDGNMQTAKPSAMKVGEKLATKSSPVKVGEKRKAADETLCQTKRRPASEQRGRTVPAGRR
Procedure: as §2

[14] = molecular target: T3, hLigIV/XRCC4 (Homo sapiens, UniProt P49917); test: In-vitro DNA ligation assay; type: biochemical; settings: 5, 10 and 20 µM
T3 construct: made in house; host or cells: E. coli Rosetta2 (DE3) pLacI
T3 sequence (P49917 whole entry): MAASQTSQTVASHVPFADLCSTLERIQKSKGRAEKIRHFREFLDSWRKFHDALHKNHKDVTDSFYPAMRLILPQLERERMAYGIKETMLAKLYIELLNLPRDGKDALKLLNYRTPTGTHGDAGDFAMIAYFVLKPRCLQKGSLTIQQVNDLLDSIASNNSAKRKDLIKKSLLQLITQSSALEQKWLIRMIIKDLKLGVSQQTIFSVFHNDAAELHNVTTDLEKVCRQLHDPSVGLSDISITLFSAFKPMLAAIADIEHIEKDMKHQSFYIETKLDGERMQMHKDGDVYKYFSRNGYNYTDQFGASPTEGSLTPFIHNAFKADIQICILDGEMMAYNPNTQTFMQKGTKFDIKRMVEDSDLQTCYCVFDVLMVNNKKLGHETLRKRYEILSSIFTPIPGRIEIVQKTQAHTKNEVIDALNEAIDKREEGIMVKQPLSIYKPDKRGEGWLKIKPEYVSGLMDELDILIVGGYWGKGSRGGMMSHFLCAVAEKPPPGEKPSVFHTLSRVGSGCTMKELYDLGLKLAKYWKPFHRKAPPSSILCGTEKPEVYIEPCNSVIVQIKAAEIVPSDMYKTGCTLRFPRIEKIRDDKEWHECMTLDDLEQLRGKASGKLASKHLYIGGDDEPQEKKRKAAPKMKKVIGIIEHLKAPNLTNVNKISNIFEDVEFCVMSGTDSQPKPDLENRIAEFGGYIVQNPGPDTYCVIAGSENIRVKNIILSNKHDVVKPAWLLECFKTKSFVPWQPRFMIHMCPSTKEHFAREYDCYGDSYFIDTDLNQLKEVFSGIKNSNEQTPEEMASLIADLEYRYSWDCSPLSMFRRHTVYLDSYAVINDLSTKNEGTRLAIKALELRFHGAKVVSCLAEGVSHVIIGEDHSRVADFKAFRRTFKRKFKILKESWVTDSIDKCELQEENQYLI
T3 sequence (Q13426 whole entry partner): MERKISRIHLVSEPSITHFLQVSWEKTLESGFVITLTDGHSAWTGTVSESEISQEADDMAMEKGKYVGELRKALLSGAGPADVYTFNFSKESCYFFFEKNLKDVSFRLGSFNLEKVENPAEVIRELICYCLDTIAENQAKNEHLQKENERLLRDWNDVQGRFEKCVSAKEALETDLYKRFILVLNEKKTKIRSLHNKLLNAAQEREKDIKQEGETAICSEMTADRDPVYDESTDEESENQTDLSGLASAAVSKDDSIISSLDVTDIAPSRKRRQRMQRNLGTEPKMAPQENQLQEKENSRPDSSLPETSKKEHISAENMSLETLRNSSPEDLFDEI
Procedure: as §2

[15] = molecular target: T4, DNA ligation (hLigI) in MDA-MB-231 cell lysate (Homo sapiens, UniProt P18858); test: Ex-vivo ligation assay with lysate of treated cells; type: cell-based; settings: MDA-MB-231, treated 48 h
T4 construct: endogenous in cells; host or cells: MDA-MB-231
T4 sequence (P18858 whole entry): as the sequence (P18858 whole entry) above
Procedure: Cells (MDA-MB-231) were seeded in 6 well plates and treated either with vehicle control (DMSO) or with different concentrations (6 and 12 µM) of compound 19 for 48 h. After the treatment cell lysate was prepared and western blotting was performed as described previously. Briefly, the cells were lysed by very brief sonication. Sonicated samples were centrifuged and the supernatant was collected and used for ligation assay and western blotting.
The MDA-MB-231 and 4T1 cells were treated with different concentrations of compound 19 for 48h. Cell lysate were prepared as described previously ^6 for the ligation assay. Here we used same DNA substrate which was used in FEN1 flap cleavage assay so that we can check the activity of hLigI and FEN1 proteins in compound 19 treated samples. The reactions were performed as described previously ^6. In the Supplementary Fig. 74 cleaved product remain (25 mer) same. This cleaved product occurs after the cleavage of 25+6 mer oligo by FEN1 protein, since the cleaved product (25 mer) remains same in treated as well as in control samples we can conclude that the compound 19 unable to inhibit the FEN1 protein inside the cells. The cleaved product (25 mer) make a double strand nicked substrate for hLig I protein with 27 mer and 52 mer oligo used in the reaction. hLigI protein gives rise to ligated (52 mer oligo) product after the completion of reaction. […]

[16] = system: plasmid DNA (pUC18); test: DNaseI cleavage protection assay; type: binding; settings: up to 500 µM
Procedure: We performed DNaseI cleavage assay as described in our previous study. Briefly, 100 ng of plasmid DNA (pUC18) was incubated with 100 µM concentration of doxorubicin (a known DNA intercalator), DAPI (DNA minor groove binder), methyl green (DNA major groove binder) and compound 19 (at 250 and 500 µM concentrations) for 30 min at 37 °C in an incubation buffer similar to ligation buffer. After incubation, the DNA was cleaved by adding 0.0025U of DNaseI in each reaction mixture for 5 min at 37 °C and the reactions were stopped by adding stop buffer which contained 7 M Urea, 20 mM Tris-Cl (pH. 7.5), 50 mM EDTA, 20% glycerol and Bromophenol blue. The samples were resolved on 1% agarose gel and visualized under UV transilluminator and image taken with GE Image quant LAS4010.

[17] = 0 h (treated and untreated cells)

COc1cc(/C=C/c2cc(=O)oc3c2ccc2ccccc23)cc(OC)c1 [Compound 19, (E)-4-(3,5-dimethoxystyryl)-2H-benzo[h]chromen-2-one]
% Inhibition of cell viability at 10 µM, 4T1 (Mouse Breast Cancer) ([1]; 10 µM): 53.18% | IC50 ([1]; Mus musculus, MTT, 48 h): 11.6 ± 1.7 µM | % Inhibition of cell viability at 10 µM, A172 (Brain) [2]: 43.71% | % Inhibition of cell viability at 10 µM, A549 (Lung) [3]: NA (NA= Not active (% Inhibition <30%)) | % Inhibition of cell viability at 10 µM, DLD1 (Colon) [4]: 42.64% | % Inhibition of cell viability at 10 µM, HEK-293 (Non-cancerous cell) [5]: 37.83% | % Inhibition of cell viability at 10 µM, PANC-1 (Pancreas) [6]: 50.32% | % Inhibition of cell viability at 10 µM, PLC/PRF/5 (Liver) [7]: NA (NA= Not active (% Inhibition <30%)) | % Inhibition of cell viability at 10 µM, SK-OV-3 (Ovary) [8]: NA (NA= Not active (% Inhibition <30%)) | Cells in G0/G1 phase [9, 17]: 75.12 ± 2.23% | Cells in G2/M phase [9, 17]: 8.71 ± 1.57% | Cells in S-phase [9, 17]: 16.18 ± 0.65% | Cells in G0/G1 phase ([9]; 24 h): 57.61 ± 0.1% | Cells in G2/M phase ([9]; 24 h): 21.48 ± 2.50% | Cells in S phase ([9]; 24 h): 20.91 ± 2.61% | Cells in G0/G1 phase ([9]; 48 h): 33.78 ± 4.77% | Cells in G2/M phase ([9]; 48 h): 32.53 ± 0.58% | Cells in S phase ([9]; 48 h): 33.7 ± 4.2% | Average body weight [10]: no significant change in the average body weight | Breast cancer metastasis to the lungs (4T1 nodules) [10]: marked decrease in breast cancer metastasis to the lungs | Breast tumor growth in-vivo [10]: inhibited breast tumor growth in-vivo in a dose dependent manner; also recorded: arrested tumor progression but could not induce tumor regression | Inhibition of T4 DNA ligase activity [11]: unaffected | Antiligase activity, compound versus parent molecules ([12]; 20 µM): significantly better antiligase activity | Inhibition of hLigI ligation activity ([12]; 5, 10 and 20 µM): specifically inhibits the activity of hLigI | Inhibition of hLigIIIβ ligation activity [13]: unaffected | Inhibition of hLigIV/XRCC4 ligation activity [14]: unaffected | DNA ligation capacity of lysate of treated cells [15]: reduced capacity for DNA ligation | Protection of DNA from cleavage by DNase I (DNA binding) [16]: no protection from cleavage by DNase I
